Data from patent publication US20100240605A1, “NOVEL IMMUNOTHERAPY STRATEGY” (priority 2007, published 2010).
Entries after “also recorded” stand apart in the source; their conditions may differ. Read-outs that look alike come from different tables or passages of the source.

Tests used:
[1] = tested on: various human and mouse cell lines; experiment: Toxicity of the test solution on cell lines; type: cell-based; conditions: test solution (2 mg COAM in 100 μl 0.9% NaCl)
[2] = biological target: T1, mouse granulocyte chemotactic protein-2 (mGCP-2) (Mus musculus, UniProt P50228); experiment: Chemokine binding in solution, gel filtration chromatography with ELISA of fractions
T1 sequence (P50228 41-132): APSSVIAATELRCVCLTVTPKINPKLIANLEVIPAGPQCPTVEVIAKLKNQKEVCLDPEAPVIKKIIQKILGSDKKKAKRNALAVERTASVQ
Method: The COAM preparation was incubated with 50 nanogram mouse GCP-2 and the mixture was analysed by gel filtration chromatography (lower figure) and the presence of GCP-2 in the column fractions was analysed with a sensitive ELISA for mouse GCP-2.
(§1) COAM alone, mGCP-2 or COAM incubated in the presence of mGCP-2 were separated by classical gel filtration chromatography. The elution fractions were collected and the presence of mGCP-2 was determined in the elution fractions by ELISA specific for mGCP-2. […] Since COAM itself is a mixture of polymers with different lengths, we fractioned first COAM in three fractions and then repeated the mGCP-2 binding and chromatographic analysis (as described above) with the high molecular weight COAM (high MW COAM) and mGCP-2. […] This is illustrated in FIG. 2.

[3] = biological target: T2, human interleukin-8/CXCL8 (IL-8/CXCL8) (Homo sapiens, UniProt P10145); experiment: Chemokine binding in solution, gel filtration chromatography; conditions: 500 ng IL-8/CXCL8; free IL-8 eluted at low molecular masses
T2 sequence (P10145 21-99): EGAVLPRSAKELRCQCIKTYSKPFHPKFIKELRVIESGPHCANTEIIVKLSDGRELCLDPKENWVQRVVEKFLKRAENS
Method: as §1
In a second set of experiments human 500 ng interleukin-8/CXCL8 (IL-8/CXCL8) was tested.

[4] = biological target: human monocyte chemotactic protein-1/CCL2 (MCP-1/CCL2) (Homo sapiens, UniProt P13500); experiment: as above; conditions: 500 ng MCP-1/CCL2; free MCP-1 eluted at low molecular weight
Chain of human monocyte chemotactic protein-1/CCL2 (MCP-1/CCL2) (P13500 24-99): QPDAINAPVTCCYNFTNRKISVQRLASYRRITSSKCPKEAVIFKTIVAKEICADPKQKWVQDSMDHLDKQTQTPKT
Method: as §1
In a third set, 500 ng human monocyte chemotactic protein-1/CCL2 (MCP-1/CCL2) was tested. Again, free MCP-1 eluted at low molecular weight, compatible with the relative size of MCP-1. […] This is again compatible with its binding to COAM

[5] = biological target: T3, synthetic human IP-10/CXCL10 (Homo sapiens, UniProt P02778); experiment: as above; conditions: no separate IP-10 result printed
T3 sequence (P02778 22-98): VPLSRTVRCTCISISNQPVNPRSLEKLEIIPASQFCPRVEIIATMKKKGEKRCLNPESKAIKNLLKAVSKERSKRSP
Text: In a fourth example, we used synthetic human IP-10/CXCL10.

[6] = tested on: B16-F1 mouse melanoma tumors; experiment: Syngeneic B16-F1 melanoma tumors in C57BI6 mice, intratumoral injection; type: in vivo; conditions: for effect on tumor expansion: single intratumoral dose of 100 μg at day 1 post tumor inoculation, COAM, heparin, saline compared
Method: We used B16-F1 mouse melanoma tumors in C57BI6 mice. 0.5 million tumor cells were injected intradermally on day 0 as known in the art. In one experiment, control mice were injected with saline on days 1, 8 and 15. The treated group COAM d1 was injected intratumorally with a single dose of 100 μg COAM on day1. The treated group COAM d1, d8, d15 was injected with 100 μg COAM three times intratumorally. […] In some cases the tumor ulcerated.
At day 18, all tumors were excised and their volumes and weights were measured.
In particular, in the FIGS. 5 A, B, C and D, we used heparin as an additional control. […] Heparin is a polyanion and binds chemokines and mimics heparin sulphate proteoglycans. The experiment was repeated as above with a single intratumoral dose of 100 μg COAM, 100 μg heparin and saline control at day 1 post tumor inoculation.

[7] = tested on: B16-F1 cells; experiment: B16 melanoma formation in immunocompromised SCID mice; type: in vivo; conditions: 500 000 B16-F1 cells s.c. on day 0
Text: We used a similar protocol as above in immunocompromised SCID mice. The SCID mice received s.c. 500 000 B16-F1 cells on day 0.

[8] = tested on: CD11b+Gr-1+ cells (neutrophils); experiment: EAE model: neutrophil mobilization to the peritoneal cavity and infiltration of spinal cord and brain; type: in vivo, mice; conditions: for CD11b^+Gr-1^+ cells in the peritoneal cavity: 2 mg COAM i.p. on day 0 and 7
Method: FIG. 9: Mobilization of neutrophils into the peritoneal cavity in response to COAM. Mice were immunized with SCH in CFA and treated with COAM (2 mg) or saline on days 0 and 7. Peritoneal cells were collected on days 5, 9 and 14, or 16 post immunization. […] Data represent three individual experiments taken together; bars represent averages±standard error of the mean of seven or nine mice. (B) Flow cytometric analysis of peritoneal cells of control mice and COAM-treated mice. Cells were stained for the presence of CD11b using FITC-labeled antibodies, and of Gr-1 using PE-labeled antibodies. Numbers indicated on each graph represent percent CD11b^+Gr-1^+ cells. One representative analysis out of 9 is shown.
FIG. 10: Neutrophil infiltration in the spinal cord and brain of COAM-treated mice is reduced compared with saline-treated control mice. […] Data of 3 pooled experiments are shown. Histograms represent averages±SEM. (B) Flow cytometry of cells isolated from the spinal cord and brain on day 16 post immunization of mice treated with COAM (2 mg) or saline on days 0 and 7. Cells were stained for CD11b and Gr-1. Numbers indicated on each graph represent percent CD11b^+Gr-1^+ cells. Each plot represents a staining pattern of pooled cells from 3 mice. Results are representative of three independent experiments with similar results.
(§2) Experimental autoimmune encephalomyelitis was induced in mice (mice were immunized with SCH in CFA) and the groups were randomized. One group was treated with 2 mg COAM intraperitoneally on day 0 and day 7.
Mice were immunized with SCH in CFA on day 0 and treated i.p. with 2 mg COAM or saline on day 0 and 7. Cells were obtained from the peritoneal cavity of saline- and COAM-treated mice on day 5, 9 and 14, 15 or 16 after immunization. Cells were stained with anti-CD11b-FITC and anti-Gr-1-PE antibodies. The proportion of CD11b^+Gr-1^+ cells is shown. Results represent pooled data from 3 experiments and N indicates the total number of mice examined. *p<0.05 between COAM-treated and saline-treated mice (Mann-Whitney U-test).

[9] = tested on: experimental autoimmune encephalomyelitis; experiment: EAE model: clinical course of active EAE; type: in vivo, SJL/J mice
Method: FIG. 11: The clinical course of active EAE is attenuated in COAM-treated mice. SJL/J mice were immunized subcutaneously with syngeneic spinal cord homogenate for induction of EAE. They were treated i.p. with 2 mg COAM (filled boxes) or saline (open boxes) on day 0 (A), day 8 (B) or days 0 and 7 (C) post immunization. The clinical course of EAE in these mice is shown as mean daily group score±sem. The disease parameters are given as an insert. Dead animals were scored 6 from the day of death until the end of the study. Arrows point to the days of COAM administration. *p<0.05; **p<0.01 for comparison with saline-treated group; Wilcoxon test or Chi-square test.
as §2
SJL/J mice were immunized subcutaneously with syngeneic spinal cord homogenate for induction of EAE. They were treated i.p. with 2 mg COAM (filled boxes) or saline (open boxes) on day 0 (A), day 8 (B) or days 0 and 7 (C) post immunization. The clinical course of EAE in these mice is shown as mean daily group score±sem. The disease parameters are given as an insert. Dead animals were scored 6 from the day of death until the end of the study. […]

[10] = tested on: peritoneal leukocytes; conditions: for neutrophils among peritoneal cells: 2 mg unfractionated COAM i.p.
Method: In a first set of in vivo experiments, 2 mg of COAM (unfractionated, solution of 2 mg in 100 μl sterile pyrogen-free 0.9% NaCl) was injected intraperitoneally per mouse and leukocytes were counted and defined at different times after injection of groups of 3-4 mice.

[11] = tested on: Moloney Sarcoma Virus-induced tumor; conditions: IP administration; De Clercq et al. 1972; cited from earlier work
[12] = EAE mice, 2 mg COAM i.p. on days 0 and 7

For chlorite-oxidized oxyamylose [COAM], the “toxic effect on cell lines” value [1] was “not any toxic effect”, the “elution position of mGCP-2 together with COAM (molecular weight range)” value ([2]; COAM incubated with mGCP-2, mGCP-2 alone eluted at about 10 kilodaltons) was > 50 kilodaltons and the “binding of mGCP-2” value ([2]; in solution, gel filtration, ELISA for mouse GCP-2) was “GCP-2 binds to COAM in solution”. For the same substance, the “elution of interleukin-8 in the presence of COAM” value [3] was “coeluted with COAM at high relative molecular weight”, the “elution of MCP-1 in the presence of COAM” value [4] was “eluted at the position of the high molecular weight of COAM” and the “chemokine binding, conclusion from results with mGCP-2, IL-8, MCP-1, IP-10” value [5] was “general chemokine-binding factor”. For the same substance, the “additional effect of three injections instead of one injection” value ([6]; 100 μg intratumorally d1, d8, d15 versus d1 only) was “No additional effect”, the “overall mean tumor volume and weights as function of time” value ([6]; COAM-treated groups (100 μg intratumorally d1, or d1, d8, d15) versus saline) was “significantly reduced” and the “tumor burden with exclusion of ulcerated open tumors” value ([6]; COAM-treated groups versus saline) was “significant effect on tumor burden”. The “spleen weight (readout of systemic inflammation)” value ([6]; after intratumoral injection, compared with saline and heparin) was “no overt splenomegaly”, the tumor volume ([6]; single COAM-treated group (COAM d1 only) versus saline, several experiments combined, p<0.015) was “significantly reduced” and the tumor weight ([6]; single COAM-treated group (COAM d1 only) versus saline, several experiments combined, p<0.025) was “significantly reduced”. The tumor growth ([6]; single dose of 100 μg COAM intratumorally at Day 1 versus saline, 6 COAM-treated and 5 control mice) was “significant reduction of tumor growth”, the “effect on tumor expansion” value [6] was “lasting and significant effect” and the tumor volume ([6]; triple treated COAM versus control group, p<0.030) was “significantly reduced”. For the same substance, the tumor weight ([6]; triple treated COAM versus control group, p<0.05) was “significantly reduced”, the “protection against tumors in an immunocompromised host” value [7] was “protects an immunocompromised host against tumors” and the “mast cell population in the peritoneal cavity” value [8, 12] was “reduced; also recorded: decrease in mast cells”. The “neutrophil recruitment to the peritoneal cavity” value [8, 12] was “increased neutrophil recruitment; also recorded: specific infiltration of neutrophils”, the “CD11b^+Gr-1^+ cells in the peritoneal cavity” value (from here on “CD11b^+Gr-1^+ cells”) ([8]; day 5 p.i., N = 8) was 322.78 ± 79.43 (N = 8) ×10^4 and the “CD11b^+Gr-1^+ cells” value ([8]; day 9 p.i., N = 9, p<0.05 versus saline) was 1210.85 ± 272.05 (N = 9) * ×10^4. For the same substance, the “CD11b^+Gr-1^+ cells” value ([8]; day 14-16 p.i., N = 5, p<0.05 versus saline) was 276.66 ± 67.29 (N = 5) * ×10^4, the “neutrophil infiltration into spinal cord and brain” value ([8]; day 16 post immunization, 2 mg COAM i.p. on days 0 and 7, versus saline) was “reduced; also recorded: lower percentage of neutrophils” and the “clinical course of active EAE (mean daily group score)” value ([9]; 2 mg COAM i.p. on day 0, day 8 or days 0 and 7 post immunization, versus saline) was “attenuated”. For the same substance, the “protection against severe EAE” value ([9]; two injections of COAM) was “protect a mammalian host against severe EAE”, the “survival and morbidity of the mice” value ([10]; 2 mg unfractionated COAM i.p. per mouse) was “survived without apparent morbidity” and the peritoneal cells ([10]; 2 mg unfractionated COAM i.p. per mouse, within 2 hours, control 126.000 cells) was 630.000 cells. For the same substance, the “neutrophils among peritoneal cells” value ([10]; at 4 h) was 64.1%, the “neutrophils among peritoneal cells” value ([10]; at 8 h) was 70.3% and the “neutrophils among peritoneal cells” value ([10]; within 2 hours, control 2.2%) was 18.1%. The regression of tumors [11] was “not show a regression of tumors”.
In the case of heparin [reference compound], the “effect on tumor expansion” value [6] is reported as “some effect in the early phase”.
